Reference: patent US20220175756A1, “APPLICATION OF COMBINATION OF QUINOLINE DERIVATIVE AND IMMUNOMODULATOR IN PREPARATION OF ANTITUMOR DRUGS” (CHONGQING PHARMACEUTICAL INDUSTRIAL RESEARCH INSTITUTE CO., …, priority 2019, published 2022)

Tested on: CT26 mouse colon carcinoma cell strain
Test: In vivo anti-tumor activity in mouse CT26 colon tumor model
Description: The experimental purposes was to investigate the in vivo anti-tumor effect of the combination of the test compound with a mouse anti-PD-1 antibody against the mouse colon cancer in CT26 tumor model.
Female Balb/c mice were subcutaneously inoculated with CT26 mouse colon carcinoma cell strain, and randomly grouped based on their body weight, after inoculation. And, they were administered as follows.
To the first group (a control group), the administration was started in the afternoon of the day of vaccination in a way that vehicle 1 (10% DMSO+10% Solutol+80% DDH2O) was administered intragastrically twice a day at a dosage of 0.1 mL/10 g body weight each time, and when the tumor had grown to a volume of about 60 mm^3 after the inoculation, it started to do administration in a way that vehicle 2 (DPBS) was given twice a week through intraperitoneal injection at a dosage of 0.1 mL/10 g body weight at each time.
To the second group, when the tumor had grown to a volume of about 60 mm^3 after the inoculation, it started to do administration in a way that anti-mouse PD-1 antibody (RMP1-14, supplied by BioXcell) was given through intraperitoneal injection twice a week at a dosage of 3 mg/kg body weight at each time. […]
During the experiment, the mice were weighed three times a week, and after the tumor formed, the tumor volume was measured three times a week at each time when the body weight was measured, and calculated following the equation: length×width^2/2. Tumor proliferation rate was calculated following the equation: Tumor proliferation rate=Tumor volume in the treatment group/Tumor volume in the control group×100%.
The differences between groups were statistically analyzed by Student's t-test, and p<0.05 was considered to be a significant difference.

SMILES: COc1cc2nccc(Oc3ccc(NC(=O)NC4CC4)c(Cl)c3F)c2cc1C(N)=O [Example 1]
- Tumor proliferation rate (day 25, Example 1 10 mg/kg intragastrically once a day in combination with anti-mouse PD-1 antibody RMP1-14 3 mg/kg i.p. twice a week, female Balb/c mice, p<0.01): 15.38%
- Anti-tumor activity in combination with PD-1 antibody (in words) (mouse CT26 tumor model, combination with PD-1 antibody): significant anti-tumor activity
- Effect on anti-tumor effect of PD-1 antibody (in words) (tumor volumes on day 25, combination group vs single antibody group, p<0.05): significantly enhanced anti-tumor effect on PD-1 antibody
